Measurements taken from patent US7169778B2, “Pteridinones as kinase inhibitors” (Warner-Lambert Company, priority 1999, dated 2007).

Legend:
cdk2/cyclinA = cdk2/cyclinA (Homo sapiens, UniProt P24941); test: Cyclin-dependent kinase assay cdk2/cyclinA; format: biochemical; settings: cyclin dependent kinase 2/cyclin A complex; read-out: CDK2A IC50
Description: (§1) All components except the ATP were added to the wells, and the plate was placed on a plate mixer for 2 minutes. The reaction was begun by addition of [^32P]ATP, and the plate was incubated at 25° C. for 15 minutes. The reaction was terminated by addition of 0.1 mL of 20% TCA. The plate was kept at 4° C. for at least 1 hour to allow the substrate to precipitate. The wells were then washed five times with 0.2 mL of 10% TCA and ^32P incorporation determined using a beta plate counter (Wallac Inc., Gaithersburg, Md.).

cdk2/cyclinE = cdk2/cyclinE (Homo sapiens, UniProt P24941); test: Cyclin-dependent kinase assay cdk2/cyclinE; format: biochemical; settings: cyclin dependent kinase 2/cyclin E complex; read-out: CDK2E IC50
Description: as §1

[1] = target: T1, human FGF-1 (flg) receptor tyrosine kinase (Homo sapiens, UniProt P11362); test: FGF receptor tyrosine kinase assay; format: biochemical; settings: read-out: FGF % @ concentration; for inhibition at 5 µM: @ 5 (unit μm); for inhibition at 0.5 µM: @ 0.5 (unit μm)
T1 construct: amplify a fragment of DNA that codes for the intracellular tyrosine kinase domain; made in house; host or cells: SF9 insect cells (baculovirus)
From the text: (§2) Full-length cDNAs for the mouse PDGF-β and human FGF-1 (flg) receptor tyrosine kinases were obtained from J. Escobedo and prepared as described in J. Biol. Chem., 1991;262:1482–1487. PCR primers were designed to amplify a fragment of DNA that codes for the intracellular tyrosine kinase domain. The fragment was inserted into a baculovirus vector, cotransfected with AcMNPV DNA, and the recombinant virus isolated. SF9 insect cells were infected with the virus to overexpress the protein, and the cell lysate was used for the assay. Assays were performed in 96-well plates (100 μL/incubation/well), and conditions were optimized to measure the incorporation of ^32P from γ^32P-ATP into a glutamate-tyrosine co-polymer substrate. Briefly, to each well was added 82.5 μL of incubation buffer containing 25 mM Hepes (pH 7.0), 150 mM NaCl, 0.1% Triton X-100, 0.2 mM PMSF, 0.2 mM Na3VO4, 10 mM MnCl2, and 750 μg/mL of Poly (4:1) glutamate-tyrosine followed by 2.5 μL of inhibitor and 5 μL of enzyme lysate (7.5 μg/μL FGF-TK or 6.0 μg/μL PDGF-TK) to initiate the reaction. Following a 10 minute incubation at 25° C., […] of γ^32P-ATP (0.4 μCi plus 50 μM ATP) was added to each well, and samples were incubated for an additional 10 minutes at 25° C. The reaction was terminated by the addition of 100 μL of 30% TCA containing 20 mM sodium pyrophosphate and precipitation of material onto glass fiber mats (Wallac). Filters were washed three times with 15% TCA containing 100 mM sodium pyrophosphate, and the radioactivity retained on the filters counted in a Wallac 1250 Betaplate reader. Nonspecific activity was defined as radioactivity retained on the filters following incubation of samples with buffer alone (no enzyme). Specific enzymatic activity (enzyme plus buffer) was defined as total activity minus nonspecific activity. The concentration of a compound that inhibited specific activity by 50% (IC50) was determined based on the inhibition curve.

[2] = target: T2, mouse PDGF-β receptor tyrosine kinase (Mus musculus, UniProt P05622); test: PDGF receptor tyrosine kinase assay; format: biochemical
T2 construct: amplify a fragment of DNA that codes for the intracellular tyrosine kinase domain; made in house; host or cells: SF9 insect cells (baculovirus)
From the text: as §2

cdk4/cyclin D1 complex = cdk4/cyclin D1 complex (Homo sapiens, UniProt P11802); test: Cyclin-dependent kinase 4 (CDK4) assay; format: biochemical; settings: cyclin dependent kinase 4/cyclin D1 complex; read-out: CDK4D IC50
Description: Enzyme assays for IC50 determinations (Table 1) and kinetic evaluation were performed in 96-well filter plates (Millipore MADVN6550) The total volume was 0.1 mL containing a final concentration of 20 mM TRIS (tris[hydroxmethyl]aminomethane), at pH 7.4, 50 mM NaCl, 1 mM dithiothreitol, 10 mM mgCl2, 25 μM ATP containing 0.25 μCi of [^32P]ATP, 20 ng of cdk4/cyclin D1 complex, 1 μg of retinoblastoma and appropriate dilutions of a compound of the present invention. All components except the ATP were added to the wells, and the plate was placed on a plate mixer for 2 minutes. The reaction was started by adding [^32P]ATP and the plate incubated at 25° C. for 15 minutes. The reaction was terminated by addition of 0.1 mL of 20% TCA. The plate was kept at 4° C. for at least 1 hour to allow the substrate to precipitate. The wells were then washed five times with 0.2 mL of 10% TCA and ^32p incorporation determined with a beta plate counter (Wallac Inc., Gaithersburg, Md.).

[3] = target: N-terminal truncated Wee 1 (Homo sapiens, UniProt P30291); test: Wee 1 OY kinase assay; format: biochemical; settings: read-out: WEE1OY IC50
Description: These kinase assays are carried out on 96-well filter plates (Millpore, Cat. MADPN0B50) in 50 μL kinase assay buffer (50 mM Tris, pH 8.0, 10 mM NaCl, 10 mM MgCl2, 10 μM ATP with 0.25 μCi [r-32P]ATP, 1 mM DTT) with 0.1 μg purified N-terminal truncated Wee 1 and 6 μg poly(Orn, Tyr)4:1 (Sigma, P4534). The assay is started by adding ATP and incubating at room temperature for 20 minutes with shaking. The reactions are terminated by adding 50 μL ice-cold 20% TCA (trichloracetic acid) with 0.1 M sodium pyrophosphate and shaking the resultant mixture for 1 minute. The plate is then incubated at 4° C. for 1 hour to allow protein to precipitate. These plates are then washed 5 times with 200 μL ice-cold 10% TCA and with 0.1 M sodium pyrophosphate per wash. Twenty-five microliters scintillation liquid is then added to each well, and the plate is counted in Wallac's MicroBeta counter 1450.

C-src kinase = C-src kinase (Homo sapiens, UniProt P12931); test: C-src kinase assay; format: biochemical
Description: C-src kinase was purified from baculovirus infected insect cell lysates using an antipeptide monoclonal antibody directed against the N-terminal amino acids (amino acids 2–17) of c-src. The antibody, covalently linked to 0.65 μm latex beads, was added to a suspension of insect cell lysis buffer comprised of 150 mM NaCl, 50 mM Tris pH 7.5, 1 mM DTT, 1% NP-40, 2 mM EGTA, 1 mM sodium vanadate, 1 mM PMSF, 1 μg/mL each of leupeptin, pepstatin, and aprotinin. Insect cell lysate containing c-src protein was incubated with these beads for 3 to 4 hours at 4° C. with rotation. At the end of the lysate incubation, the beads were rinsed three times in lysis buffer, resuspended in lysis buffer containing 10% glycerol, and frozen. These latex beads were thawed, rinsed three times in assay buffer (40 mM Tris, pH 7.5, 5 mM mgCl2) and suspended in the same buffer. In a Millipore 96-well plate with a 0.65 μm polyvinylidine membrane bottom were added the reaction components: 10 μL C-src beads, 10 μL of 2.5 mg/mL poly GluTyr substrate, 5 μM ATP containing 0.2 μCi labeled ^32P-ATP, 5 μL DMSO containing inhibitors or as a solvent control, and buffer to make the final volume 125 μL. The reaction was started at room temperature by addition of the ATP and quenched 10 minutes later by the addition of 125 μL of 30% TCA, 0.1 M sodium pyrophosphate for 5 minutes on ice. The plate was then filtered and the wells washed with two […] aliquots of 15% TCA, 0.1 M pyrophosphate. The filters were then punched, counted in a liquid scintillation counter, and the data examined for inhibitory activity in comparison to a known inhibitor such as erbstatin. The method is also described in J. Med. Chem., 1994;37:598–609.

cdc2/cyclinB = cdc2/cyclinB (Homo sapiens, UniProt P06493); test: Cyclin-dependent kinase assay cdc2/cyclinB; format: biochemical; settings: cyclin dependent kinase 1/cyclin B complex; read-out: CDK1B IC50
Description: as §1

Chain of cdk4/cyclin D1 complex (P11802 whole entry, species assumed): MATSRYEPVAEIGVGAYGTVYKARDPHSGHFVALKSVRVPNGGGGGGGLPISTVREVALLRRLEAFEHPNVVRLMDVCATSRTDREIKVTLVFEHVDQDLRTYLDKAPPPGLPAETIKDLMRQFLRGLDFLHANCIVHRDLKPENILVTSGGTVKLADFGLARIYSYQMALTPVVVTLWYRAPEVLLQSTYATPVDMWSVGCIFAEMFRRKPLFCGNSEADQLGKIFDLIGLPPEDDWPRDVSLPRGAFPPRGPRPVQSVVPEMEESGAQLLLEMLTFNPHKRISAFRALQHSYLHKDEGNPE
Chain of cdk4/cyclin D1 complex (P24385 whole entry partner, species assumed): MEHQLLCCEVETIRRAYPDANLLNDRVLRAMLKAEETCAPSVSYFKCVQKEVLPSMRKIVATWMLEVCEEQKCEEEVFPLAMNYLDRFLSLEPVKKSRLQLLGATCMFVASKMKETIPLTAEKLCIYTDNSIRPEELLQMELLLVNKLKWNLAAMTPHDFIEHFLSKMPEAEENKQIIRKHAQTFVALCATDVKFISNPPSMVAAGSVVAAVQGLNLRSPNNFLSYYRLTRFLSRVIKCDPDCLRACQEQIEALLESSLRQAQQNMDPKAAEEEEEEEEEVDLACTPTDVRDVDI
T2 sequence (P05622 599-961 limits assumed): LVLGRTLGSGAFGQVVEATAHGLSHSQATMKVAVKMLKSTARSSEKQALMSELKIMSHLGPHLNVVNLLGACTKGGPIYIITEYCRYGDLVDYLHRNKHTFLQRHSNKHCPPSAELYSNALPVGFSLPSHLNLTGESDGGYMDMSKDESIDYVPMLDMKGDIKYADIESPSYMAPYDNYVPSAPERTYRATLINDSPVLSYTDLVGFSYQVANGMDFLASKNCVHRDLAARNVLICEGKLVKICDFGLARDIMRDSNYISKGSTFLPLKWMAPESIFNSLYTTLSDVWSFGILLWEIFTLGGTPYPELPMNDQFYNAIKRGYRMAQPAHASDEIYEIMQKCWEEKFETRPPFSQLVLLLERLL
Chain of C-src kinase (P12931 whole entry, the tested form may be a part): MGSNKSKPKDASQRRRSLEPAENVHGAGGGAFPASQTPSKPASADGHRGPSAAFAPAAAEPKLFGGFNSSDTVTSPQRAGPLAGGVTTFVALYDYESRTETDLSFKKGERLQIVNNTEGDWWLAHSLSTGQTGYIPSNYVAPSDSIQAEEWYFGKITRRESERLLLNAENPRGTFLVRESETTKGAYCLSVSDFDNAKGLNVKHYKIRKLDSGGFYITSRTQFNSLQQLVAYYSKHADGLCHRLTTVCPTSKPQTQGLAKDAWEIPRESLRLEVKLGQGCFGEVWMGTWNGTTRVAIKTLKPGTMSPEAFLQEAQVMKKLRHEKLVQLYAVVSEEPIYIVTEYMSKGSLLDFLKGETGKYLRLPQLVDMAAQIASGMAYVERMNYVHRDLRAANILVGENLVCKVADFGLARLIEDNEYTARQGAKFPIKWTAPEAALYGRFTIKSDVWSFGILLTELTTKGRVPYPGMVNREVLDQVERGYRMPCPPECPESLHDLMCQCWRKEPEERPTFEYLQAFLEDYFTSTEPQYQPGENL
T1 sequence (P11362 478-767 limits assumed): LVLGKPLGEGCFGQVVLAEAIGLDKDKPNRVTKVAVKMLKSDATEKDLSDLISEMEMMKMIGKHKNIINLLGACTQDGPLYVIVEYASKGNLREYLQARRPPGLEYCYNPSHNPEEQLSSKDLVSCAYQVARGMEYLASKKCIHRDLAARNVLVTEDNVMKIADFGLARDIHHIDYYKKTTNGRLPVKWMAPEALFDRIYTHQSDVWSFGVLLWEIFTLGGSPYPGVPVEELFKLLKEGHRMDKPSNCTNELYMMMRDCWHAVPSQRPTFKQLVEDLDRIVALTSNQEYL
Chain of cdc2/cyclinB (P06493 whole entry, species assumed): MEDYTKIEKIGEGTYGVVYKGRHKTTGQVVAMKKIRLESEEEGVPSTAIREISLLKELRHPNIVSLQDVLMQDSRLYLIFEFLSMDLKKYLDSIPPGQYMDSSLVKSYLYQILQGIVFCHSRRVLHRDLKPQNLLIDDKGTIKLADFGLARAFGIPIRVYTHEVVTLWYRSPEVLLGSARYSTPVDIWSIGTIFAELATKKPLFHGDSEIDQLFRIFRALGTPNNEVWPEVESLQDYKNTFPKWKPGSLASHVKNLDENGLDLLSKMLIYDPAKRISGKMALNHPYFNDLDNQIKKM
Chain of cdc2/cyclinB (P14635 whole entry partner, species assumed): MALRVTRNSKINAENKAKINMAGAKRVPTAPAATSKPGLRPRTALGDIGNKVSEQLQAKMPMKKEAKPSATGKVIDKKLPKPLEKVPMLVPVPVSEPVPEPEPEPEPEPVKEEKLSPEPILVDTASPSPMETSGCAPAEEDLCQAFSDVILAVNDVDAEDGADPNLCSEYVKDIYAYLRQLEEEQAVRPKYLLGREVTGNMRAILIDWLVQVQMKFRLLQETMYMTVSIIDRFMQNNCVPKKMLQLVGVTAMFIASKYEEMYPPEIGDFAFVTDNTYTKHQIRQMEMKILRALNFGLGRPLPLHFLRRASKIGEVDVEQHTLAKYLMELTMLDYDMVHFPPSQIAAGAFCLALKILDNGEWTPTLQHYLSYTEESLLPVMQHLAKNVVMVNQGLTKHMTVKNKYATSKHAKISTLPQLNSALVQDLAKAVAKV
Chain of N-terminal truncated Wee 1 (P30291 299-569 limits assumed): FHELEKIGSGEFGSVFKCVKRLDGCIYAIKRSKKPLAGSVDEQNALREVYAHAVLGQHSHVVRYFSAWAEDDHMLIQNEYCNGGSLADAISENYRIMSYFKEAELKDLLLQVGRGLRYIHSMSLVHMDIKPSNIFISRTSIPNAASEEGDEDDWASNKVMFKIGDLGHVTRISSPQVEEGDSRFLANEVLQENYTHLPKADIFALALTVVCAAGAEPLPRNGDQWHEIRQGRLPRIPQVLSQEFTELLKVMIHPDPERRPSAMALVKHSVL

SMILES | IC50 (cdk2/cyclinA) [µM] | melting point [°C] | IC50 (cdk2/cyclinE) [µM] | inhibition at 5 µM [1] [%] | IC50 [2] [µM] | IC50 (cdk4/cyclin D1 complex) [µM] | IC50 [3] [µM] | IC50 (C-src kinase) [µM] | inhibition at 0.5 µM [1] [%] | PDGF % @ concentration ([2]; @ 5 (unit μm)) [% @ 5] | inhibition at 50 µM ([1]; @ 50 (unit μm)) [%] | IC50 (cdc2/cyclinB) [µM]
O=c1cnc2cnc(Nc3ccc(N4CCOCC4)cc3)nc2n1C1CCCC1 [Compound 7, 8-Cyclopentyl-2-[[4-(morpholin-4-yl)phenyl]amino]-8H-pteridin-7-one] | 0.064 | 182 to 184 | 0.65 | 33 | 12 | 0.06 | > 50 | 8.47 | – | – | – | –
CN1CCN(c2ccc(Nc3ncc4ncc(=O)n(C5CCCC5)c4n3)cc2)CC1 [Compound 8, 8-Cyclopentyl-2-[[4-(4methylpiperazin-1-yl)phenyl]amino]-8H-pteridin-7-one] | 0.26 | 208 to 211 | 0.95 | – | 6 | 0.041 | > 50 | 3.35 | 41 | – | – | –
Cc1nc2cnc(Nc3ccc(N4CCN(C)CC4)cc3)nc2n(C2CCCC2)c1=O [Compound 9, 8-Cyclopentyl-6methyl-2-[[4-(4-methylpiperazin-1-yl)phenyl]amino]-8H-pteridin-7-one] | 2.78 | 210 to 211 | 41 | – | – | 0.047 | > 50 | 3 | 41 | 59 | – | –
Cc1nc2cnc(Nc3ccc(N4CCOCC4)cc3)nc2n(C2CCCC2)c1=O [Compound 10, 8-Cyclopentyl-6-methyl-2-[[4-(morpholin-4-yl)phenyl]amino]-8H-pteridin-7-one] | 1.84 | 230 to 234 | 8 | – | > 50 | 0.44 | > 50 | 34 | – | – | 57 | –
CC(C)(C)OC(=O)N1CCN(c2ccc(Nc3ncc4ncc(=O)n(C5CCCC5)c4n3)cc2)CC1 [Compound 52, 2-[[4-[4(tert-Butoxycarbonyl)piperazin-1-yl]phenyl]amino]-8-cyclopentyl-8H-pteridin-7-one] | 0.53 | 215 to 217 | 4.5 | – | – | 1.8 | – | > 50 | – | – | – | –

Further lines, results first:

IC50 (cdk2/cyclinA) [µM] | melting point [°C] | IC50 (cdk2/cyclinE) [µM] | inhibition at 5 µM [1] [%] | IC50 [2] [µM] | IC50 (cdk4/cyclin D1 complex) [µM] | IC50 [3] [µM] | IC50 (C-src kinase) [µM] | inhibition at 0.5 µM [1] [%] | PDGF % @ concentration ([2]; @ 5 (unit μm)) [% @ 5] | inhibition at 50 µM ([1]; @ 50 (unit μm)) [%] | IC50 (cdc2/cyclinB) [µM] | SMILES
0.036 | 236 to 238 | 0.05 | 31 | > 50 | 1.25 | > 50 | 11 | – | – | – | 0.354 | O=c1cnc2cnc(Nc3ccncc3)nc2n1C1CCCC1 [Compound 11, 8-Cyclopentyl-2-[(pyridin-4-yl)amino]-8H-pteridin-7-one]
0.18 | – | 0.61 | – | – | 0.007 | – | 3.3 | – | – | – | 0.75 | O=c1cnc2cnc(Nc3ccc(N4CCNCC4)cc3)nc2n1C1CCCC1 [Compound 16, 8-Cyclopentyl-2-[[4-(piperazin-1-yl)phenyl]amino]-8H-pteridin-7-one]
0.094 | – | 1.9 | – | 2.19 | 0.0435 | – | – | – | – | – | 0.4 | NC1CCN(c2ccc(Nc3ncc4ncc(=O)n(C5CCCC5)c4n3)cc2)C1 (centres unmarked) [Compound 17, 2-[[4-(3-Aminopyrrolidin-1-yl)phenyl]amino]-8-cyclopentyl-8H-pteridin-7-one]
